Reference: patent publication US7012095B2, “Compounds for modulating cell proliferation” (HSC Research and Development Limited, priority 2000, dated 2006)
One block for each compound: values may come before it.

Legend:
[1] = system: Philadelphia positive ALL, AML and lymphoma; assay: In vitro / ex vivo purging assays, summary statements; assay type: cell-based
normal bone marrow cells [2] = assay: In vitro purging of normal bone marrow; assay type: cell-based; details: 50 μM, seven hours exposure, FIG. 21
Description: Heparinized bone marrow cells were layered over Percoll (1.077 gm/ml) (Pharmacia Fine Chemical, Piscataway N.J.) and centrifuged at 400 g at 4° C. for 10 minutes to remove neutrophils and RBCs.
For the purging process, the cells were resuspended at 1×10^6/ml in complete medium with or without 50 μM CR4. The cells were incubated with the CR4 for two and a half hours at 37° C., 5% CO2. At the end of this period the cells were thoroughly washed in medium to remove CR4 and then cultured at 2×10^5 cells/ml in IMDM (OCI, Toronto) containing 0.9% (vol/vol) methylcellulose supplemented with 30% FCS (Cansera Rexdale, ON.) or normal human plasma, a cocktail of cytokines containing G-CSF (10 ng/ml, Amgen), IL-3 (40 U/ml, Immunex), MGF (50 ng/ml, Immunex), Erythropoietin (2 u/ml, Epprex) or TPO (10 ng/ml, Amgen) and 5×10^−5M b-2-mercaptoethanol. The culture mixture was plated in 1 ml volumes into 35 mm petri dishes and incubated at 37° C., 5% CO2 in a humidified atmosphere. All cultures were evaluated at 14 days for the number of BFU-E colonies (defined as aggregates of more than 500 hemaglobinized cells or, 3 or more erythroid subcolonies), CFU-C colonies (defined as granulocyte or monocyte-macrophage cells or both) and CFU-GEMM colonies (a mixed population comprising of all elements).
For the purging process, the cells were resuspended at 1×10^6/ml in complete medium with or without 50 μM CR11. The cells were incubated with the tryrphostin for seven hours at 37° C., 5% CO2. At the end of this period the cells were thoroughly washed in medium to remove CR11 and then cultured at 2×10^5 cells/ml in IMDM (OCI, Toronto) containing 0.9% (vol/vol) methylcellulose supplementd with 30% FCS (Cansera Rexdale, ON.) or normal human plasma, a cocktail of cytokines containing G-CSF (10 ng/ml, Amgen), IL-3 (40 U/ml, Immunex), MGF (50 ng/ml, Immunex), Erythropoietin (2 u/ml, Epprex) or TPO (10 ng/ml, Amgen) and 5×10^−5M β-2-mercaptoethanol. The culture mixture was plated in 1 ml volumes into 35 mm petri dishes and incubated at 37° C., 5% CO2 in a humidified atmosphere. All cultures were evaluated at 14 days for the number of BFU-E colonies (defined as aggregates of more than 500 hemoglobinized cells or, 3 or more erythroid subcolonies), CFU-C colonies (defined as granulocyte or monocyte-macrophage cells or both) and CFU-GEMM colonies (a mixed population comprising of all elements).

[3] = system: variety of cancer cells (ALL, Philadelphia positive ALL, acute myeloid leukemia, myeloma, B-lineage lymphoma); assay: Cancer cell growth in culture, summary statements; assay type: cell-based; details: for efficacy against a variety of cell types (Acute Lymphoblastic Leukemia, Philadelphia positive Leukemia, Acute Myeloid Leukemia): in culture
normal bone marrow cells [4] = assay: CFU-GEMM assay, normal bone marrow differentiation in culture; assay type: cell-based; details: 14 days
Description: The CFU-GEMM assay was performed according to Fauser and Messner (1978, Blood, 52(6) 143–8) and Messner and Fausser (1980, Blut, 41(5) 327–33) with some variations. In brief, heparinized bone marrow cells were layered over Percoll (1.077 gm/ml) (Pharmacia Fine Chemical, Piscataway N.J.) and centrifuged at 400 g at 4° C. for 10 minutes to remove neutrophils and RBCs. The fractionated BM cells at 2×10^5 cells/ml were cultured in IMDM (OCI, Toronto) containing 0.9% (vol/vol) methylcellulose supplemented with 30% FCS (Cansera Rexdale, ON.) or normal human plasma, a cocktail of cytokines containing G-CSF (10 ng/ml, Amgen), IL-3 (40 U/ml, Immunex), MGF (50 ng/ml, Immunex), Erythropoietin (2 u/ml, Epprex) or TPO (10 ng/ml, Amgen), 5×10^−5M β-2-mercaptoethanol and the specified concentration of CR4. The culture mixture was plated in 1 ml volumes into 35 mm petri dishes and incubated at 37° C., 5% CO2 in a humidified atmosphere. All cultures were evaluated at 14 days for the number of BFU-E colonies (defined as aggregates of more than 500 hemoglobinized cells or, 3 or more erythroid subcolonies), CFU-GM colonies (defined as granulocyte or monocyte-macrophage cells or both), CFU-Meg colonies (comprising 4 or more megakaryocytes) and CFU-GEMM colonies (a mixed population comprising of all elements).
The CFU-GEMM assay was performed according to Fauser and Messner (1978, Blood, 52(6) 1243–8) and Messner and Fausser (1980, Blut, 41(5) 327–33) with some variations. In brief, heparinized bone marrow cells were layered over Percoll (1.077 gm/ml) (Pharmacia Fine Chemical, Piscataway N.J.) and centrifuged at 400 g at 4° C. for 10 minutes to remove neutrophils and RBCs. […] All cultures were evaluated at 14 days for the number of BFU-E colonies (defined as aggregates of more than 500 hemaglobinized cells or, 3 or more erythroid subcolonies) and CFU-C colonies (defined as granulocyte or monocyte-macrophage cells or both).
The CFU-GEMM assay was performed according to Fauser and Messner (1978, Blood, 52(6) 1243–8) and Messner and Fausser (1980, Blut, 41(5) 327–33) with some variations (British Journal of Haematology, 1992, 80, p40–48). […] All cultures were evaluated at 14 days for the number of BFU-E colonies (defined as aggregates of more than 500 hemoglobinized cells or, 3 or more erythroid subcolonies) and CFU-C colonies (defined as granulocyte or monocyte-macrophage cells or both).

Ph+ ALL cells = assay: Killing of Philadelphia positive ALL cells in methylcellulose colony culture; assay type: cell-based, human
Description: (§1) Ph+ ALL cells were plated in 1 ml volumes, in the absence of exogenous growth factors, into 35 mm petri dishes (Nunc, Gibco) containing alpha MEM (Gibco) plus 10% FCS (Cansera Rexdale, ON.) in 0.9% (vol/vol) methylcellulose (Fluka, Switzerland) with the indicated concentrations of CR4. Cultures were set at 37° C., 5% CO2 in a humidified atmosphere. Colonies consisting of more than 20 cells were counted at 12 days or earlier using an inverted microscope.
as §1, with “ALL” for “Ph+ ALL”, “20%” for “10%”, “and” for “with”, “compound.” for “CR4.”
as §1, with “ALL” for “Ph+ ALL”, “20%” for “10%”, “and” for “with”, “CR24.” for “CR4.”, “9” for “12”, “microscope. […]” for “microscope.”

BFU-E, CFU-GEMM and CFU-C colonies (normal bone marrow cells [2]): all normal
Structure (SMILES): COc1cc(/C=C/C=C(\C#N)C(=O)NCc2ccc(O)c(O)c2)cc(OC)c1O [CR11, (E,E)-2-(3,4-Dihydroxybenzylamido)-3-(3,5-dimethoxy-4-hydroxystyryl)acrylonitrile]
efficacy as ex vivo purging agents [1]: effective | inhibition of colony formation (normal bone marrow cells [2]; 14 days): did not result in any significant inhibition | efficacy against a variety of cell types (Acute Lymphoblastic Leukemia, Philadelphia positive Leukemia, Acute Myeloid Leukemia) [3]: highly effective

Structure (SMILES): N#C/C(=C\C=C\c1ccccc1)C(=O)NCc1ccc(O)c(O)c1 [CR19, (E,E)-2-(3,4 Dihydroxybenzylamido)-3-styrylacrylonitrile]
stimulatory effect on CFU-C colony formation (normal bone marrow cells [4]; 5 μM, FIG. 12): disappeared | efficacy against a variety of cell types (Acute Lymphoblastic Leukemia, Philadelphia positive Leukemia, Acute Myeloid Leukemia) [3]: highly effective | toxicity to cancer cells ([3]; low nanomolar doses, long term exposure): highly toxic

inhibition of BFU-E colony formation (normal bone marrow cells [4]; 20 μM, FIG. 13): inhibition
Structure (SMILES): N#C/C(=C\C=C\c1ccc(O)c(O)c1)C(=O)NCc1ccc(O)c(O)c1 [CR21, (E,E)-2-(3,4 Dihydroxybenzylamido)-3-(3,4-dihydroxystyryl)acrylonitrile]
concentration inhibiting cell growth (Ph+ ALL cells; Ph+ ALL, colonies at 12 days, FIG. 8): 5 µM

Structure (SMILES): COc1cc(/C=C/C=C(\C#N)C(=O)NCCO)cc(OC)c1O [CR24, (E,E)-2-(β-Ethanolamido)-3-(3,5-dimethoxy-4-hydroxystyryl)acrylonitrile]
lowest concentration effective against Ph+ ALL cells (Ph+ ALL cells; colonies at 9 days, FIG. 10): 0.5 µM
